Values quoted from earlier work in patent publication US9782454B2 (LONGEVITY BIOTECH, INC., priority 2010, dated 2017).
Non-standard residues stand in square brackets, D forms with d. No end group written: not given here. dPhe(4-Cl) = N[C@H](Cc1ccc(Cl)cc1)C(=O)O

Legend:
mouse CRF2β = mouse CRF2β (Mus musculus, UniProt Q60748); settings: read-out: Kd for binding to mouse CRF2β; cited from earlier work
rat CRF1 receptors = target: T1, rat CRF1 receptors (Rattus norvegicus, UniProt P35353); settings: read-out: Kd for binding to rat CRF1 receptors; cited from earlier work
T1 sequence (P35353 24-415): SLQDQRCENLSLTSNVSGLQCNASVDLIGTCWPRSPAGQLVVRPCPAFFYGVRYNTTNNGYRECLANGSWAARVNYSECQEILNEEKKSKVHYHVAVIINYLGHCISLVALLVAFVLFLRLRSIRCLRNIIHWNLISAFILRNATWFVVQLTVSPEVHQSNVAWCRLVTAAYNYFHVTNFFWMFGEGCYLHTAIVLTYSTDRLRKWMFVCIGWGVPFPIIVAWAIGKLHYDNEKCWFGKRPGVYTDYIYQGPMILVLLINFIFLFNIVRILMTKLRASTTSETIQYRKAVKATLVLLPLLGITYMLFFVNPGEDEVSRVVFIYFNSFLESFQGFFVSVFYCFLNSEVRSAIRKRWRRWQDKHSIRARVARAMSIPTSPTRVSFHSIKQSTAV

mCRF2β = target: T2, mCRF2β (Mus musculus, UniProt Q60748); settings: cited from earlier work
T2 construct: expressed in transfected cells; host or cells: HEK-mCRF2β cells (value quoted from the literature)

neurotensin receptor = target: T3, neurotensin receptor (Mus musculus, UniProt O88319); settings: read-out: IC50 for inhibition of {125I}-NT binding to neonatal mouse brain; cited from earlier work
T3 construct: from tissue; host or cells: neonatal mouse brain (value quoted from the literature)

guinea pig ileum = settings: read-out: EC50 for contraction of guinea pig ileum; cited from earlier work
neurotensin receptors = settings: read-out: IC50 for inhibition of {Trp11}-NT binding to rat brain receptors; cited from earlier work
14.3.3 proteins = settings: read-out: KD, antagonist of 14.3.3 proteins; cited from earlier work
[1] = target: vasoactive intestinal peptide (VIP) receptor; settings: read-out: IC50, selective VIP antagonist; cited from earlier work
glucagon receptors = glucagon receptors (Homo sapiens, UniProt P47871); settings: cited from earlier work
secretin receptors = secretin receptors (Homo sapiens, UniProt P47872); settings: cited from earlier work
GRF receptors = target: T4, GRF receptors (Homo sapiens, UniProt Q02643); settings: cited from earlier work
T4 sequence (Q02643 23-423): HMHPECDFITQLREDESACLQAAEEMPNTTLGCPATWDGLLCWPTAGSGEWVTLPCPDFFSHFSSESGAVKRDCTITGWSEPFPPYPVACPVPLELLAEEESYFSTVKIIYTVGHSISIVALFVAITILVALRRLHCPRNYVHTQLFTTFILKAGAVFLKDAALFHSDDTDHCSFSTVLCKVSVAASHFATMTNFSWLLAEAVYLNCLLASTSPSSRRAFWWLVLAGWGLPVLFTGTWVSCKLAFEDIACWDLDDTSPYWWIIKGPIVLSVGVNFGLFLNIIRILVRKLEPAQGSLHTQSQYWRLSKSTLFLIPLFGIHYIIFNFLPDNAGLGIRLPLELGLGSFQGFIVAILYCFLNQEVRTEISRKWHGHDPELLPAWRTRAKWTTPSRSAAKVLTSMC

Chain of glucagon receptors (P47871 26-477): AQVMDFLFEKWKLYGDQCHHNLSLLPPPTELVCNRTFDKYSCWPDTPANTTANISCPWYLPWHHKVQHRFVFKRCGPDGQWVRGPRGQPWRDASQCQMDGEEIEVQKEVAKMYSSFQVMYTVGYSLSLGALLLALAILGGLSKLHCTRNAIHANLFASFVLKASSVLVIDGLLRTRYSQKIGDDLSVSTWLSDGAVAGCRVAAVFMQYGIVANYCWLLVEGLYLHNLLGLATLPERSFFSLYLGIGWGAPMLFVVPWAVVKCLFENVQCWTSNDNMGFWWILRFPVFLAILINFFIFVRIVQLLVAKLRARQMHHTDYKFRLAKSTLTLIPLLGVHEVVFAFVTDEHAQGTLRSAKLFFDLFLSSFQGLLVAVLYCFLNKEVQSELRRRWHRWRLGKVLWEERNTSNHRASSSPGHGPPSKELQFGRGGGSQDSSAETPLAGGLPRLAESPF
Chain of secretin receptors (P47872 23-440): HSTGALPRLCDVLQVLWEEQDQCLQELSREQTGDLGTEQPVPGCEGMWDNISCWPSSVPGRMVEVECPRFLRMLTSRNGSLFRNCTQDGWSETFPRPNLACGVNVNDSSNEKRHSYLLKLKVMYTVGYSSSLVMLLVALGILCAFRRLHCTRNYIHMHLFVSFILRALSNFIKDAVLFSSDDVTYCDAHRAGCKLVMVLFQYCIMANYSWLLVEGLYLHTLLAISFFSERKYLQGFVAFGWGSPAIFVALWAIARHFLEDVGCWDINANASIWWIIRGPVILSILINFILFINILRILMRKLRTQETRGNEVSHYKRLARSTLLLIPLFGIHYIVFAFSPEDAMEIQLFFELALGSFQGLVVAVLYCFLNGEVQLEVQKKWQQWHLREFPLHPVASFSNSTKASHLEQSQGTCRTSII
Chain of mouse CRF2β (Q60748 1-431 isoform Q60748-2): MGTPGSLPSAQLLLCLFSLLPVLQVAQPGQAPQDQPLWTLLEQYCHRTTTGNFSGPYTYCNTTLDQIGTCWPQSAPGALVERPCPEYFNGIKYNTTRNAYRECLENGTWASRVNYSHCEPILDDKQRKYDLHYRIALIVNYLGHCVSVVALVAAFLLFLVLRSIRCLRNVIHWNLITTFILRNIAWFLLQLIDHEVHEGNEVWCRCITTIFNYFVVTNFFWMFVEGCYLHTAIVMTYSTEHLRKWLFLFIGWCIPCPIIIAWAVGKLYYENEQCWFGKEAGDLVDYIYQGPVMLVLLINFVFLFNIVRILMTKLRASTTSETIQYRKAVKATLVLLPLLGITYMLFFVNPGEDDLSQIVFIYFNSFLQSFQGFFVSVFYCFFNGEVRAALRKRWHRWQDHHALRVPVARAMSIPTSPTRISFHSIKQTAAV
T2 sequence (Q60748 1-431 isoform Q60748-2): as above
T3 sequence (O88319 whole entry): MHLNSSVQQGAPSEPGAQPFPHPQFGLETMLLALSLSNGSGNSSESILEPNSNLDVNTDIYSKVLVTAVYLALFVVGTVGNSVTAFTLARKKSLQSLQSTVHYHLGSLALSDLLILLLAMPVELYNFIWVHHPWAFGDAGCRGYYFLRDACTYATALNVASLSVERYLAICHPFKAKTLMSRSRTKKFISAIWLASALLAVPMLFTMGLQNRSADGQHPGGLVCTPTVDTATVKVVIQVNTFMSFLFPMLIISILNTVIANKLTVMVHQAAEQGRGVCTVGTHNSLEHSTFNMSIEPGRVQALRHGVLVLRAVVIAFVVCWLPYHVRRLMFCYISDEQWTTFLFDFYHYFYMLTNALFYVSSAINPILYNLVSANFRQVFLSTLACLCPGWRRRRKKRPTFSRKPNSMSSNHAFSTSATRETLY

For Antisauvagine-30, the Kd (mouse CRF2β) is given as 1.4 nM, the Kd (rat CRF1 receptors) is given as 154 nM and the “pA2, inhibition of sauvagine-stimulated cAMP accumulation in HEK-mCRF2β cells” value (mCRF2β) is given as “sauvagine-stimulated cAMP accumulation in HEK-mCRF2β cells (pA2 = 8.49). Prevents stress-”.

In the case of JMV 449 (IARRHPYFL; Kinetensin), the IC50 (neurotensin receptor) is given as 0.15 nM and the EC50 (guinea pig ileum) is given as 1.9 nM.

In the case of “Neuromedin N (rat, mouse, porcine, canine) (KIPYIL; Neuromedin N; UniProt P20068 142-147, looked up)”, the IC50 (neurotensin receptors) is listed as 16.7 nM.

In the case of “R18 (RYVVLPRPVCFEKGMNYTVR; Peptide F9) [Compound R18]”, the Kd (14.3.3 proteins) is given as roughly 80 nM.

In the case of “{D-p-C1-Phe6,Leu17}-VIP ([dPhe(4-Cl)]TDNYTRLRKQMAVKKYLNSILN-NH2)”, the IC50 [1] is listed as 126 nM, the “activity on glucagon receptors” value (glucagon receptors) is listed as “no activity” and the “activity on secretin receptors” value (secretin receptors) is listed as “no activity”. For the same substance, the “activity on GRF receptors” value (GRF receptors) was “no activity”.
